Source: article PMC7180948, “New Insights into 4-Anilinoquinazolines as Inhibitors of Cardiac Troponin I–Interacting Kinase (TNNi3K)” (Molecules, 2020)

Assays:
Assay in all cases: biochemical
Set-up in all cases: KINOMEscan competition binding panel (Eurofins DiscoverX), single concentration, % inhibition
Details in all cases: read-out: 7 at 1 µM % inhibition
[1] = target: T1, ABL1(T315I)-nonphosphorylated (Homo sapiens, UniProt P00519, T315I)
T1 construct: nonphosphorylated
How it was run: (§1)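 Binding was profiled in the KINOMEscan panel of over 400 human kinases, with each compound tested at a single concentration of 1 µM to map selectivity.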

ACVR2B = ACVR2B (Homo sapiens, UniProt Q13705)
How it was run: as §1

AURKB = AURKB (Homo sapiens, UniProt Q96GD4)
AURKB, sequence (Q96GD4 whole entry): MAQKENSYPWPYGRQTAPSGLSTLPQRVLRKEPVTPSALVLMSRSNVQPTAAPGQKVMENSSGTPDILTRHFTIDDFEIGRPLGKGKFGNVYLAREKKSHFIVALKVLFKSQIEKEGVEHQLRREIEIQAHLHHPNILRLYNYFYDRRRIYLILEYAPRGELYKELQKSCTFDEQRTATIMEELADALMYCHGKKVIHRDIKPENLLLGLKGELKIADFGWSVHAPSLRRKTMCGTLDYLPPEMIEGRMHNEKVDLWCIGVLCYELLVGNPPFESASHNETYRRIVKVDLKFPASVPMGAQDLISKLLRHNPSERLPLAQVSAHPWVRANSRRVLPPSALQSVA
How it was run: as §1

CAMK1B = target: T2, CAMK1B (Homo sapiens, UniProt Q6P2M8)
T2 construct: gene PNCK
T2 sequence (Q6P2M8 whole entry): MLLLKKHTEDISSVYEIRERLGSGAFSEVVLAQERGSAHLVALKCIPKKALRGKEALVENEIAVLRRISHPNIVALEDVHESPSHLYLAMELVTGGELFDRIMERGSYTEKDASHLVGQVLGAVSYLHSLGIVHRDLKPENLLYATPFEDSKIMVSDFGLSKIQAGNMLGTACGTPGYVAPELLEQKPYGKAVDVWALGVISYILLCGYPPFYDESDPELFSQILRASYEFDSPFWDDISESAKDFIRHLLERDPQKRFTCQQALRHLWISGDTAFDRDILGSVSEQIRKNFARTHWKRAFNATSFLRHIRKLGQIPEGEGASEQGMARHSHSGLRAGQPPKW
How it was run: as §1

CAMK2D = CAMK2D (Homo sapiens, UniProt Q13557)
How it was run: as §1

CIT = CIT (Homo sapiens, UniProt O14578)
How it was run: as §1

EIF2AK1 = EIF2AK1 (Homo sapiens, UniProt Q9BQI3)
How it was run: as §1

FLT3(D835H) = FLT3(D835H) (Homo sapiens, UniProt P36888, D835H)
How it was run: as §1

FRK = FRK (Homo sapiens, UniProt P42685)
How it was run: as §1

HPK1 = target: T3, HPK1 (Homo sapiens, UniProt Q92918)
T3 construct: gene MAP4K1
How it was run: as §1

IKK-beta = target: T4, IKK-beta (Homo sapiens, UniProt O14920)
T4 construct: gene IKBKB
T4 sequence (O14920 whole entry): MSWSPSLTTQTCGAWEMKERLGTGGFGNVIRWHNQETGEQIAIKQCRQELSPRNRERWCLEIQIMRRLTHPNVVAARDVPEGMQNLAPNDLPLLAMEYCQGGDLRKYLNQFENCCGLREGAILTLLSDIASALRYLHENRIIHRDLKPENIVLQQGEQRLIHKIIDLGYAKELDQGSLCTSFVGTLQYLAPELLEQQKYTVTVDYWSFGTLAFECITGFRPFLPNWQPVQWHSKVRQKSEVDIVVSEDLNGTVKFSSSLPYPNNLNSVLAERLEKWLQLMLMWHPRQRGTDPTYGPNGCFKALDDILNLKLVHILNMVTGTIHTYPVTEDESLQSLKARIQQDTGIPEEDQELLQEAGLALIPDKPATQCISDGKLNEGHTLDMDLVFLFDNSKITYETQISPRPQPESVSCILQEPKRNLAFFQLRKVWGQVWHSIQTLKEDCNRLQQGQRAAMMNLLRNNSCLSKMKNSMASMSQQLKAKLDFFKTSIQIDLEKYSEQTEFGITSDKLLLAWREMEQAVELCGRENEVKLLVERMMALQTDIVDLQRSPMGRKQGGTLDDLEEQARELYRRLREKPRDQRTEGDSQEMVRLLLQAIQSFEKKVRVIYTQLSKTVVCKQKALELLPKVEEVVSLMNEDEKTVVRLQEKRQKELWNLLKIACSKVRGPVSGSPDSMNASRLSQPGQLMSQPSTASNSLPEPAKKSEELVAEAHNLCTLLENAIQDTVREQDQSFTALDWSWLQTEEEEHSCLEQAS
How it was run: as §1

KIT-autoinhibited = KIT-autoinhibited (Homo sapiens, UniProt P10721)
How it was run: as §1

LATS1 = LATS1 (Homo sapiens, UniProt O95835)
How it was run: as §1

MINK = target: T5, MINK (Homo sapiens, UniProt Q8N4C8)
T5 construct: gene MINK1
How it was run: as §1

MLCK = target: T6, MLCK (Homo sapiens, UniProt Q32MK0)
T6 construct: gene MYLK3
How it was run: as §1

MLK3 = target: T7, MLK3 (Homo sapiens, UniProt Q16584)
T7 construct: gene MAP3K11
How it was run: as §1

MYLK = MYLK (Homo sapiens, UniProt Q15746)
How it was run: as §1

PIKFYVE = PIKFYVE (Homo sapiens, UniProt Q9Y2I7)
PIKFYVE, sequence (Q9Y2I7 whole entry): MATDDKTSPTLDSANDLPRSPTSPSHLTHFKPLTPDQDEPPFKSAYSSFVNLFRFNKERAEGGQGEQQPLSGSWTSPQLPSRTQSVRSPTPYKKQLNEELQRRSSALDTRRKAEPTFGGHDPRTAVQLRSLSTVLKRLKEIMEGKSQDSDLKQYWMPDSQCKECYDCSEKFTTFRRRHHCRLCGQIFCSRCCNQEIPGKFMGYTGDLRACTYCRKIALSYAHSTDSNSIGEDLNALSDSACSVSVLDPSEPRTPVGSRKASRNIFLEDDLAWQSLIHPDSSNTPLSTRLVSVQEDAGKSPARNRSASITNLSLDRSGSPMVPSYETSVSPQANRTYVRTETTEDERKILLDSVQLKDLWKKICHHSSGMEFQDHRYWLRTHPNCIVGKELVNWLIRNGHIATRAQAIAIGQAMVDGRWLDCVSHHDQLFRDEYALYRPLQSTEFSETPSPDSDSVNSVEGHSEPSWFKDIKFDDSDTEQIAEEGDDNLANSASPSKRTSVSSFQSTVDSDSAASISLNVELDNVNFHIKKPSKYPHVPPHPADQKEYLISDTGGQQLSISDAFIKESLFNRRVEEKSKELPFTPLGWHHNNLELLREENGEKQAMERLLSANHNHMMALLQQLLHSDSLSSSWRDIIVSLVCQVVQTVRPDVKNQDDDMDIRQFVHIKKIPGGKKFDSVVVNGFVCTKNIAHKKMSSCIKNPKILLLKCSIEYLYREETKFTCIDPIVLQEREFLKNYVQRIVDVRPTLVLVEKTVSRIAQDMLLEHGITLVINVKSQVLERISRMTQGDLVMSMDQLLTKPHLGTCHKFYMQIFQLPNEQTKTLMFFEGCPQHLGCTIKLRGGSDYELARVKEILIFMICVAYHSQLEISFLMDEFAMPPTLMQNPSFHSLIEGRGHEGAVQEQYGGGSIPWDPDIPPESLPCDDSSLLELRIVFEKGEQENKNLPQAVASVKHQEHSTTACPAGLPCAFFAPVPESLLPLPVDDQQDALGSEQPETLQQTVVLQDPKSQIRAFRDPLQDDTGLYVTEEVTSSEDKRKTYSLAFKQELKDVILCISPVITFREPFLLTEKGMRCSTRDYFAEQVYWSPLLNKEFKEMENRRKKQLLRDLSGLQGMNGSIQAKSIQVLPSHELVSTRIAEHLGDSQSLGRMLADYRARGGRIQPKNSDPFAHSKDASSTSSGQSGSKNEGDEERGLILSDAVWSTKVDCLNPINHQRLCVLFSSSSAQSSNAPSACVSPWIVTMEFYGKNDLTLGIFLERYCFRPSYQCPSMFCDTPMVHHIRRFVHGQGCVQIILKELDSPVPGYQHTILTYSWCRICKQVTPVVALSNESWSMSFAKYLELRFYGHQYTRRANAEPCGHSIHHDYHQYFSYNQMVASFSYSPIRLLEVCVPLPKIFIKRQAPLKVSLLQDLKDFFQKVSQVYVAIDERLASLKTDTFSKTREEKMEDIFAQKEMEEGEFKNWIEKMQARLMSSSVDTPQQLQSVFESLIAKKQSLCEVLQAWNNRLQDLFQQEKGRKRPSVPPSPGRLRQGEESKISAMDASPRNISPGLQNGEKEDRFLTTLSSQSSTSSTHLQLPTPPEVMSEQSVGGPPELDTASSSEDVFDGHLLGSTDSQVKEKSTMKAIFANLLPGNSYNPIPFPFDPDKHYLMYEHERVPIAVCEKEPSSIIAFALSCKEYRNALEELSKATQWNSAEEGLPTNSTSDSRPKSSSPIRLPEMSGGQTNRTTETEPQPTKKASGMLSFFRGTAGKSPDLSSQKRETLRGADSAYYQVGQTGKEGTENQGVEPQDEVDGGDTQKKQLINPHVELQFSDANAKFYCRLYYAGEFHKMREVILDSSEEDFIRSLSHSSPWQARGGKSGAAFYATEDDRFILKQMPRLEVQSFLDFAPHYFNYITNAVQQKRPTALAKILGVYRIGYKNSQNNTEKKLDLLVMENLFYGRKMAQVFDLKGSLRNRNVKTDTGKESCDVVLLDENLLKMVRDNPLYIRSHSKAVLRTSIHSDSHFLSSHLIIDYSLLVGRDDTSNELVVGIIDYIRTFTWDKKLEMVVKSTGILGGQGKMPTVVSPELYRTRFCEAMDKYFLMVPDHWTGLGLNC
How it was run: as §1

PIP5K2C = target: T8, PIP5K2C (Homo sapiens, UniProt Q8TBX8)
T8 construct: gene PIP4K2C
How it was run: as §1

ROCK1 = ROCK1 (Homo sapiens, UniProt Q13464)
How it was run: as §1

TAOK3 = TAOK3 (Homo sapiens, UniProt Q9H2K8)
How it was run: as §1

TSSK1B = TSSK1B (Homo sapiens, UniProt Q9BXA7)
TSSK1B, sequence (Q9BXA7 whole entry): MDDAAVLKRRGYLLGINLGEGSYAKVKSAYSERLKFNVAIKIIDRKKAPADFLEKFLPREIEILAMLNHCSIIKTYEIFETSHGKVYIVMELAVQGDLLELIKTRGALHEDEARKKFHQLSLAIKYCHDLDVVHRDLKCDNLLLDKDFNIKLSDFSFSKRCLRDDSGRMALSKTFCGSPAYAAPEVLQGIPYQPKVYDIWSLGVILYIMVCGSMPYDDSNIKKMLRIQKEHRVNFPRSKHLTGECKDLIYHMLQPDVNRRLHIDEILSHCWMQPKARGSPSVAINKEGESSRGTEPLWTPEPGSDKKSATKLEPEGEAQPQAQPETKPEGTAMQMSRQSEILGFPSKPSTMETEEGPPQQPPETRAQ
How it was run: as §1

[2] = target: T9, TYK2(JH2domain-pseudokinase) (Homo sapiens, UniProt P29597)
T9 construct: JH2domain-pseudokinase
T9 sequence (P29597 whole entry): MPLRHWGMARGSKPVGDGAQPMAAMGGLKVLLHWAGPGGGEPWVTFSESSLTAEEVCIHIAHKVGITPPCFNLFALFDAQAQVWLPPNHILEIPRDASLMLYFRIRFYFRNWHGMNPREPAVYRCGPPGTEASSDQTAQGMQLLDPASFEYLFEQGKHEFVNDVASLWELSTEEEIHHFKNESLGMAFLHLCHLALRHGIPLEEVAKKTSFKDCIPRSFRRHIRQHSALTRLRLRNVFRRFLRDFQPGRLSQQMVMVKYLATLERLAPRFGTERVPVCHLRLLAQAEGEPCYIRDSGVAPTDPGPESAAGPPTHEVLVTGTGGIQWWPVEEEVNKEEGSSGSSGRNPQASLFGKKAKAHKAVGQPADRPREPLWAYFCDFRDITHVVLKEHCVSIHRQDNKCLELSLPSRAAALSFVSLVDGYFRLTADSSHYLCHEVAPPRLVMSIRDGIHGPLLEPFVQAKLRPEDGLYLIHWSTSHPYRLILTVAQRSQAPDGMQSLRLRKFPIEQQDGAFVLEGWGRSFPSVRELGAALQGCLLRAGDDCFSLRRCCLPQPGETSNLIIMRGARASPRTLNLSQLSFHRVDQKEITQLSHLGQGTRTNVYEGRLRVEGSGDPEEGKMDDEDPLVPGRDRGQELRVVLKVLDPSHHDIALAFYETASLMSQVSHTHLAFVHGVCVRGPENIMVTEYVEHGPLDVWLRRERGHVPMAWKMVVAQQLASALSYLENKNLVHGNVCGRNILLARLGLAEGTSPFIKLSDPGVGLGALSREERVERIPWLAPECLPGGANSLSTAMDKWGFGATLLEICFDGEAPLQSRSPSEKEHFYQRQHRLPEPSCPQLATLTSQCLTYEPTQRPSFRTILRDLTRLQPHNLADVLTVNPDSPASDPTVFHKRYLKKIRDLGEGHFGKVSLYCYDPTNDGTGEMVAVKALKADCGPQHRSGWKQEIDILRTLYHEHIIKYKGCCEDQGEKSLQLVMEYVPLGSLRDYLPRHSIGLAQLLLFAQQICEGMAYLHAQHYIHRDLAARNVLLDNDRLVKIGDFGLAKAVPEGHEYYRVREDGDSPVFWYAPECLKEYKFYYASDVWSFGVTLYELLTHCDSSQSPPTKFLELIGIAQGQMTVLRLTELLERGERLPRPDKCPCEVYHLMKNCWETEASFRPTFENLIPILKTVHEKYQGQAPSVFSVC
How it was run: as §1

ULK3 = ULK3 (Homo sapiens, UniProt Q6PHR2)
How it was run: as §1

## CNS(=O)(=O)c1ccc(N(C)C)c(Nc2ncnc3cc(OC)c(OC)cc23)c1 [compound 7, 3-((6,7-dimethoxyquinazolin-4-yl)amino)-4-(dimethylamino)-N-methylbenzenesulfonamide]
[1]
  inhibition at 1 µM: 33%
ACVR2B
  inhibition at 1 µM: 6%
AURKB
  inhibition at 1 µM: 0%
CAMK1B
  inhibition at 1 µM: 46%
CAMK2D
  inhibition at 1 µM: 0%
CIT
  inhibition at 1 µM: 0%
EIF2AK1
  inhibition at 1 µM: 0%
FLT3(D835H)
  inhibition at 1 µM: 20%
FRK
  inhibition at 1 µM: 0%
HPK1
  inhibition at 1 µM: 0%
IKK-beta
  inhibition at 1 µM: 68%
KIT-autoinhibited
  inhibition at 1 µM: 22%
LATS1
  inhibition at 1 µM: 0%
MINK
  inhibition at 1 µM: 18%
MLCK
  inhibition at 1 µM: 0%
MLK3
  inhibition at 1 µM: 0%
MYLK
  inhibition at 1 µM: 9%
PIKFYVE
  inhibition at 1 µM: 7%
PIP5K2C
  inhibition at 1 µM: 0%
ROCK1
  inhibition at 1 µM: 1%
TAOK3
  inhibition at 1 µM: 29%
TSSK1B
  inhibition at 1 µM: 0%
[2]
  inhibition at 1 µM: 0%
ULK3
  inhibition at 1 µM: 29%
